Assay results: patent publication US20210275449A1, “Inhalable Formulation of a Solution Containing Glycopyrronium Bromide” (priority 2020, published 2021)

What was measured:
[1] = Aerodynamic particle size distribution by Andersen Cascade Impactor (ACI); format: physicochemical; settings: Samples I-V, flow rate 28.3 L/min
Method: An Andersen Cascade Impactor instrument (ACI) was used to determine the particle size distribution of Samples I-V. The test was conducted at a flow rate of 28.3 L/min. Deposition of the active substance on each ACI plate was confirmed by high pressure liquid chromatography. The particle size was expressed in terms of mass median aerodynamic diameter (MMAD) and Geometric Standard Deviation (GSD).

[2] = Aerodynamic particle size distribution of Sample VI by Next Generation Impactor (NGI), soft mist inhaler; format: physicochemical; settings: NGI 30 L/minute, RH 90±2%
Method: The aerodynamic particle size distribution was determined using a Next Generation Impactor instrument (NGI). The soft mist inhaler was held close to the NGI inlet until no aerosol was visible. The flow rate of the NGI was set to 30 L/minute and was operated under ambient temperature and a relative humidity (RH) of 90±2%.
Sample VI was discharged into the NGI. Fractions of the dose were deposited at different stages of the NGI, in accordance with the particle size of the fraction. Each fraction was washed from the stage and analyzed using HPLC.
The particle size distribution was expressed in terms of mass median aerodynamic diameter (MMAD) and geometric standard deviation (GSD).

(3RS)-3-[(2 SR)-(2-cyclopentyl-2-hydroxy-2-penylacetyl)oxy]-1,1-dimethlypyrrolidinium bromide [Glycopyrronium bromide]
GSD [1]: 1.7 | MMAD [1]: 4.4 μm | Fine Particle Fraction (FPF) [2]: 70.45% | Fine particle dose (FPD) [2]: 8.44 µg | GSD [2]: less than 2 | MMAD [2]: less than 6 μm | GSD ([2]; listed as Glycopyrrolate): 1.77 | MMAD ([2]; listed as Glycopyrrolate): 4.05 μm
